Experimental findings from the supplement of paper PMC8967900 are described below.
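Also: ALL cell lines in 384-well plates, five doses spanning 10,000-fold, each plate scaled between vehicle and 100 µmol/L benzalkonium chloride controls, sDSS an adapted area-under-curve metric.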

The subject of one assay is KOPN-8. Description: selective drug sensitivity score (sDSS, relative to normal bone marrow) (sDSS (score)); higher = more potent and effective on the cell line relative to normal bone marrow cells. The settings on record: 72 h.
As to `C/C=C1\NC(=O)[C@H]2CSSCC/C=C/[C@H](CC(=O)N[C@H](C(C)C)C(=O)N2)OC(=O)[C@H](C(C)C)NC1=O` [Romidepsin] (top concentration 1000 nM), the “selective drug sensitivity score” value came to 3.16.

Regarding `CN(C)CCOc1ccc(/C(=C(/CCCl)c2ccccc2)c2ccccc2)cc1` [Toremifene] (top concentration 10000 nM), the “selective drug sensitivity score” value was determined as 0.98.

With `CCCCc1nc2cc(/C=C/C(=O)NO)ccc2n1CCN(CC)CC` [Pracinostat] (top concentration 10000 nM), the “selective drug sensitivity score” value came to 8.68.

As for `Cn1ncc(Cl)c1-c1cc(C(=O)N[C@H](CN)Cc2cccc(F)c2)sc1Cl` [Afuresertib] (top concentration 1000 nM), the “selective drug sensitivity score” value was 6.06.

With `Cc1cc(-c2nc(-c3ccc(OC(F)(F)F)cc3)no2)nn1Cc1ccnc(N2CCN(C3CC3)CC2)c1` [BAY_87-2243] (top concentration 1000 nM), the “selective drug sensitivity score” value was found to be 6.34.

Take `CNc1nc(-c2ccc3c(N)n[nH]c3c2)cc(N2C[C@@H](C(=O)NC3CCCCC3)CC[C@H]2C)n1` (top concentration 10000 nM): the “selective drug sensitivity score” value is 7.26.

As for `CN1CC[C@H](c2c(O)cc(O)c3c(=O)cc(-c4ccccc4Cl)oc23)[C@H](O)C1` [Alvocidib] (top concentration 10000 nM), the “selective drug sensitivity score” value was -1.2.

As for `Cc1cc2c(C(C)C)c(O)c(O)c(C=O)c2c(O)c1-c1c(C)cc2c(C(C)C)c(O)c(O)c(C=O)c2c1O` [AT-101] (top concentration 100000 nM), the “selective drug sensitivity score” value is 14.6.

On to `Cc1ccc(C(=O)Nc2cccc(C(F)(F)F)c2)cc1Nc1nc(-c2cccnc2)nc2c1cnn2C` [NVP-BHG712] (top concentration 10000 nM), for which the “selective drug sensitivity score” value is 7.78.

For `COC[C@H](NC(=O)c1cnc(C)s1)C(=O)N[C@@H](COC)C(=O)N[C@@H](Cc1ccccc1)C(=O)[C@@]1(C)CO1` [Oprozomib] (top concentration 2500 nM), the “selective drug sensitivity score” value came to 3.

Consider `Cc1ccc(C(=O)N(CCCN)[C@@H](c2oc3cc(Cl)ccc3c(=O)c2Cc2ccccc2)C(C)C)cc1` (top concentration 100 nM), for which the “selective drug sensitivity score” value is 3.46.

Regarding `CCn1c(C(=O)N(C2CC2)C2CC2)cc2c3c(ncn3C)c(Nc3cc(C)n(C)n3)nc21` (top concentration 10000 nM), the “selective drug sensitivity score” value is -4.36.

With `Nc1nc(Cl)nc2c1ncn2[C@@H]1O[C@H](CO)[C@@H](O)[C@@H]1F` [Clofarabine] (top concentration 10000 nM), the “selective drug sensitivity score” value turned out to be 6.7.

In the case of `Cc1ccc(C(=O)Nc2ccc(Oc3cc4cnn(C)c4cc3-c3cn[nH]c3)c(F)c2)c(=O)n1-c1ccc(F)cc1` [Merestinib] (top concentration 1000 nM), the “selective drug sensitivity score” value is -0.62.

As for `Nc1ncn([C@@H]2O[C@H](CO)[C@@H](O)[C@H]2O)c(=O)n1` [Azacitidine] (top concentration 10000 nM), the “selective drug sensitivity score” value turned out to be 8.74.

On to `CC(C)c1cc(-c2n[nH]c(=O)n2-c2ccc3c(ccn3C)c2)c(O)cc1O` [Ganetespib] (top concentration 1000 nM), for which the “selective drug sensitivity score” value turned out to be 10.1.

On to `C[C@]1(c2nc3c(C(N)=O)cccc3[nH]2)CCCN1` [Veliparib] (top concentration 10000 nM), for which the “selective drug sensitivity score” value was 5.52.

In another assay the test system is LC4-1. The description is as above. The settings on record: 72 h.
As for `C/C=C1\NC(=O)[C@H]2CSSCC/C=C/[C@H](CC(=O)N[C@H](C(C)C)C(=O)N2)OC(=O)[C@H](C(C)C)NC1=O` [Romidepsin] (top concentration 1000 nM), the “selective drug sensitivity score” value was 1.76.

On to `CN(C)CCOc1ccc(/C(=C(/CCCl)c2ccccc2)c2ccccc2)cc1` [Toremifene] (top concentration 10000 nM), for which the “selective drug sensitivity score” value turned out to be 1.08.

For `CCCCc1nc2cc(/C=C/C(=O)NO)ccc2n1CCN(CC)CC` [Pracinostat] (top concentration 10000 nM), the “selective drug sensitivity score” value stood at 6.18.

As to `Cn1ncc(Cl)c1-c1cc(C(=O)N[C@H](CN)Cc2cccc(F)c2)sc1Cl` [Afuresertib] (top concentration 1000 nM), the “selective drug sensitivity score” value is 0.86.

For the compound `Cc1cc(-c2nc(-c3ccc(OC(F)(F)F)cc3)no2)nn1Cc1ccnc(N2CCN(C3CC3)CC2)c1` [BAY_87-2243] (top concentration 1000 nM), the “selective drug sensitivity score” value is 3.84.

As to `CNc1nc(-c2ccc3c(N)n[nH]c3c2)cc(N2C[C@@H](C(=O)NC3CCCCC3)CC[C@H]2C)n1` (top concentration 10000 nM), the “selective drug sensitivity score” value stood at 0.76.

As to `CN1CC[C@H](c2c(O)cc(O)c3c(=O)cc(-c4ccccc4Cl)oc23)[C@H](O)C1` [Alvocidib] (top concentration 10000 nM), the “selective drug sensitivity score” value is -3.3.

Consider `Cc1cc2c(C(C)C)c(O)c(O)c(C=O)c2c(O)c1-c1c(C)cc2c(C(C)C)c(O)c(O)c(C=O)c2c1O` [AT-101] (top concentration 100000 nM), for which the “selective drug sensitivity score” value amounted to 9.28.

For the compound `Cc1ccc(C(=O)Nc2cccc(C(F)(F)F)c2)cc1Nc1nc(-c2cccnc2)nc2c1cnn2C` [NVP-BHG712] (top concentration 10000 nM), the “selective drug sensitivity score” value worked out at 3.38.

For the compound `COC[C@H](NC(=O)c1cnc(C)s1)C(=O)N[C@@H](COC)C(=O)N[C@@H](Cc1ccccc1)C(=O)[C@@]1(C)CO1` [Oprozomib] (top concentration 2500 nM), the “selective drug sensitivity score” value was 3.7.

For the compound `Cc1ccc(C(=O)N(CCCN)[C@@H](c2oc3cc(Cl)ccc3c(=O)c2Cc2ccccc2)C(C)C)cc1` (top concentration 100 nM), the “selective drug sensitivity score” value amounted to 2.86.

For the compound `CCn1c(C(=O)N(C2CC2)C2CC2)cc2c3c(ncn3C)c(Nc3cc(C)n(C)n3)nc21` (top concentration 10000 nM), the “selective drug sensitivity score” value is -4.36.

Regarding `Nc1nc(Cl)nc2c1ncn2[C@@H]1O[C@H](CO)[C@@H](O)[C@@H]1F` [Clofarabine] (top concentration 10000 nM), the “selective drug sensitivity score” value amounted to 9.2.

Take `Cc1ccc(C(=O)Nc2ccc(Oc3cc4cnn(C)c4cc3-c3cn[nH]c3)c(F)c2)c(=O)n1-c1ccc(F)cc1` [Merestinib] (top concentration 1000 nM): the “selective drug sensitivity score” value is -0.62.

For `Nc1ncn([C@@H]2O[C@H](CO)[C@@H](O)[C@H]2O)c(=O)n1` [Azacitidine] (top concentration 10000 nM), the “selective drug sensitivity score” value is 6.04.

For `CC(C)c1cc(-c2n[nH]c(=O)n2-c2ccc3c(ccn3C)c2)c(O)cc1O` [Ganetespib] (top concentration 1000 nM), the “selective drug sensitivity score” value amounted to 1.44.

For `C[C@]1(c2nc3c(C(N)=O)cccc3[nH]2)CCCN1` [Veliparib] (top concentration 10000 nM), the “selective drug sensitivity score” value is -4.18.

The test system of a further assay is MOLT-14. The assay is described as above. The settings on record: 72 h.
Regarding `C/C=C1\NC(=O)[C@H]2CSSCC/C=C/[C@H](CC(=O)N[C@H](C(C)C)C(=O)N2)OC(=O)[C@H](C(C)C)NC1=O` [Romidepsin] (top concentration 1000 nM), the “selective drug sensitivity score” value came out at 2.16.

On to `CN(C)CCOc1ccc(/C(=C(/CCCl)c2ccccc2)c2ccccc2)cc1` [Toremifene] (top concentration 10000 nM), for which the “selective drug sensitivity score” value is 2.48.

Consider `CCCCc1nc2cc(/C=C/C(=O)NO)ccc2n1CCN(CC)CC` [Pracinostat] (top concentration 10000 nM), for which the “selective drug sensitivity score” value was determined as 6.18.

As to `Cn1ncc(Cl)c1-c1cc(C(=O)N[C@H](CN)Cc2cccc(F)c2)sc1Cl` [Afuresertib] (top concentration 1000 nM), the “selective drug sensitivity score” value worked out at 0.16.

Take `Cc1cc(-c2nc(-c3ccc(OC(F)(F)F)cc3)no2)nn1Cc1ccnc(N2CCN(C3CC3)CC2)c1` [BAY_87-2243] (top concentration 1000 nM): the “selective drug sensitivity score” value amounted to 8.64.

Take `CNc1nc(-c2ccc3c(N)n[nH]c3c2)cc(N2C[C@@H](C(=O)NC3CCCCC3)CC[C@H]2C)n1` (top concentration 10000 nM): the “selective drug sensitivity score” value was -0.14.

Regarding `CN1CC[C@H](c2c(O)cc(O)c3c(=O)cc(-c4ccccc4Cl)oc23)[C@H](O)C1` [Alvocidib] (top concentration 10000 nM), the “selective drug sensitivity score” value was determined as 1.3.

`Cc1cc2c(C(C)C)c(O)c(O)c(C=O)c2c(O)c1-c1c(C)cc2c(C(C)C)c(O)c(O)c(C=O)c2c1O` [AT-101] (top concentration 100000 nM): the “selective drug sensitivity score” value was found to be 4.98.
